In ChEMBL document CHEMBL1154699, “Synthesis of aryl phosphates based on pyrimidine and triazine scaffolds” (Eur J Med Chem, 2010):
Activity calls are given as the source filed them. The calls are words filed in the database; no cut-off is given here.

Experiments:
[1] = biological target: T1, Growth factor receptor-bound protein 2 (Homo sapiens, UniProt P62993); experiment: Displacement of biotin-Ahx-PSpYVNVQN peptide from GST fused Grb2 SH2 domain by ELISA
[2] = biological target: T1, Growth factor receptor-bound protein 2; experiment: Inhibition of Grb2 by ELISA

| Activity [1] | SMILES | other results |
| --- | --- | --- |
| inactive | Cc1cc(-c2cccc(Oc3ccc(OP(=O)(O)O)cc3)c2)nc(Nc2ccc(-c3nn[nH]n3)cc2)n1 | – |
| inactive | NC(=O)CNc1nc(Nc2ccc(OP(=O)(O)O)cc2)nc(-c2cccc(Oc3ccc(OP(=O)(O)O)cc3)c2)n1 | – |
| – | NC(=O)CNc1nc(Nc2ccc(OP(=O)(O)O)cc2)nc(-c2ccccc2Oc2ccc(OP(=O)(O)O)cc2)n1 | IC50 [1]: 265 µM |
| – | Cc1ccc(OC(C)(C)C(=O)N[C@@H](Cc2ccc(OP(=O)(O)O)cc2)C(=O)N[C@@](C)(Cc2ccc(OP(=O)(O)O)cc2)C(=O)N[C@@H](CC(N)=O)C(N)=O)c(/N=N/c2ccccc2)c1 | IC50 [2]: 0.011 µM |
